Common to all, as to experiment: relative viability (nuclei count vs DMSO), 5 days (fraction); higher = more cells survive
Compound in the test “Bleomycin + Lapatinib”: CC1=C(N=C(N=C1N)[C@H](CC(=O)N)NC[C@@H](C(=O)N)N)C(=O)N[C@@H]([C@H](C2=CN=CN2)OC3C(C(C(C(O3)CO)O)O)OC4C(C(C(C(O4)CO)O)OC(=O)N)O)C(=O)N[C@H](C)[C@H]([C@H](C)C(=O)N[C@@H]([C@@H](C)O)C(=O)NCCC5=NC(=CS5)C6=NC(=CS6)C(=O)NCCC[S+](C)C)O [Bleomycin] + CS(=O)(=O)CCNCc1ccc(-c2ccc3ncnc(Nc4ccc(OCc5cccc(F)c5)c(Cl)c4)c3c2)o1 [Lapatinib] (partner 2 µM)
The settings on record: main component drawn. Summed up: (§1)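 Relative viability was taken as the ratio of nuclei in treated wells to nuclei in vehicle wells. Lung cancer cell lines in 1536-well plates received compounds by pin tool one day after seeding, either one drug alone or a fixed anchor-drug dose plus five library-drug doses (not always all listed) in √10 steps. Nuclei were counted on 4× images after 5 days of treatment, and values are medians of duplicate plates.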

Compound in the test “Bleomycin + Dasatinib”: CC1=C(N=C(N=C1N)[C@H](CC(=O)N)NC[C@@H](C(=O)N)N)C(=O)N[C@@H]([C@H](C2=CN=CN2)OC3C(C(C(C(O3)CO)O)O)OC4C(C(C(C(O4)CO)O)OC(=O)N)O)C(=O)N[C@H](C)[C@H]([C@H](C)C(=O)N[C@@H]([C@@H](C)O)C(=O)NCCC5=NC(=CS5)C6=NC(=CS6)C(=O)NCCC[S+](C)C)O [Bleomycin] + Cc1nc(Nc2ncc(C(=O)Nc3c(C)cccc3Cl)s2)cc(N2CCN(CCO)CC2)n1 [Dasatinib] (partner 0.075 µM)
The conditions noted are these: main component drawn. The method, boiled down: as §1

Compound in the test “Etoposide + Crizotinib”: COc1cc([C@@H]2c3cc4c(cc3[C@@H](O[C@@H]3O[C@@H]5CO[C@@H](C)O[C@H]5[C@H](O)[C@H]3O)[C@H]3COC(=O)[C@H]23)OCO4)cc(OC)c1O [Etoposide] + C[C@@H](Oc1cc(-c2cnn(C3CCNCC3)c2)cnc1N)c1c(Cl)ccc(F)c1Cl [Crizotinib] (partner 1 µM)
The method, boiled down: as §1

Compound in the test “Etoposide + Olaparib”: COc1cc([C@@H]2c3cc4c(cc3[C@@H](O[C@@H]3O[C@@H]5CO[C@@H](C)O[C@H]5[C@H](O)[C@H]3O)[C@H]3COC(=O)[C@H]23)OCO4)cc(OC)c1O [Etoposide] + O=C(c1cc(Cc2n[nH]c(=O)c3ccccc23)ccc1F)N1CCN(C(=O)C2CC2)CC1 [Olaparib] (partner 8 µM)
Summed up: as §1

As for HARA, the relative viability with Bleomycin + Lapatinib (first compound 0.01 µM) is 0.764; in the test with Bleomycin + Lapatinib (first compound 0.03162 µM), 0.734; with Bleomycin + Lapatinib (first compound 0.1 µM) it was 0.704; with Bleomycin + Lapatinib (first compound 0.3162 µM), 0.644; with Bleomycin + Lapatinib (first compound 1 µM) it was 0.308; with Bleomycin + Dasatinib (first compound 0.01 µM), 0.297. Also, the relative viability with Bleomycin + Dasatinib (first compound 0.03162 µM) was found to be 0.322; with Bleomycin + Dasatinib (first compound 0.1 µM), 0.251; with Bleomycin + Dasatinib (first compound 0.3162 µM) it was 0.186; in the test with Bleomycin + Dasatinib (first compound 1 µM), 0.104; with Etoposide + Crizotinib (first compound 0.01 µM) it was 0.801; in the test with Etoposide + Crizotinib (first compound 0.03162 µM) it was 1.11. Besides, the relative viability with Etoposide + Crizotinib (first compound 0.1 µM) was found to be 1.11; with Etoposide + Crizotinib (first compound 0.3162 µM), 0.611; in the test with Etoposide + Crizotinib (first compound 1 µM) it was 0.192; with Etoposide + Olaparib (first compound 0.01 µM) it was 0.698; in the test with Etoposide + Olaparib (first compound 0.03162 µM), 0.764; in the test with Etoposide + Olaparib (first compound 0.1 µM), 0.652. Besides, the relative viability with Etoposide + Olaparib (first compound 0.3162 µM) was 0.376; with Etoposide + Olaparib (first compound 1 µM), 0.206.
Regarding HCC-15, the relative viability was 0.808 with Bleomycin + Lapatinib (first compound 0.01 µM); 0.801 with Bleomycin + Lapatinib (first compound 0.03162 µM); 0.806 with Bleomycin + Lapatinib (first compound 0.1 µM); 0.299 with Bleomycin + Lapatinib (first compound 0.3162 µM); 0.223 with Bleomycin + Lapatinib (first compound 1 µM); 0.613 with Bleomycin + Dasatinib (first compound 0.01 µM). Besides, the relative viability stood at 0.559 in the test with Bleomycin + Dasatinib (first compound 0.03162 µM); 0.515 with Bleomycin + Dasatinib (first compound 0.1 µM); 0.0886 with Bleomycin + Dasatinib (first compound 0.3162 µM); 0.177 in the test with Bleomycin + Dasatinib (first compound 1 µM); 0.799 in the test with Etoposide + Crizotinib (first compound 0.01 µM); 0.821 in the test with Etoposide + Crizotinib (first compound 0.03162 µM). Besides, the relative viability amounted to 0.856 in the test with Etoposide + Crizotinib (first compound 0.1 µM); 0.342 in the test with Etoposide + Crizotinib (first compound 0.3162 µM); 0.125 with Etoposide + Crizotinib (first compound 1 µM); 0.699 with Etoposide + Olaparib (first compound 0.01 µM); 0.613 with Etoposide + Olaparib (first compound 0.03162 µM); 0.629 with Etoposide + Olaparib (first compound 0.1 µM). Besides, the relative viability in the test with Etoposide + Olaparib (first compound 0.3162 µM) turned out to be 0.266; in the test with Etoposide + Olaparib (first compound 1 µM) it was 0.162.
As to LCLC-97TM1, the relative viability with Bleomycin + Lapatinib (first compound 0.01 µM) worked out at 0.264; with Bleomycin + Lapatinib (first compound 0.03162 µM) it was 0.288; with Bleomycin + Lapatinib (first compound 0.1 µM), 0.151; with Bleomycin + Lapatinib (first compound 0.3162 µM), 0.168; in the test with Bleomycin + Lapatinib (first compound 1 µM), 0.093; with Bleomycin + Dasatinib (first compound 0.01 µM), 0.553. For the same cell line, the relative viability with Bleomycin + Dasatinib (first compound 0.03162 µM) is 0.576; with Bleomycin + Dasatinib (first compound 0.1 µM), 0.619; with Bleomycin + Dasatinib (first compound 0.3162 µM) it was 0.208; in the test with Bleomycin + Dasatinib (first compound 1 µM), 0.123; in the test with Etoposide + Crizotinib (first compound 0.03162 µM), 0.382; in the test with Etoposide + Crizotinib (first compound 0.1 µM) it was 0.241. In addition, the relative viability in the test with Etoposide + Crizotinib (first compound 0.3162 µM) came out at 0.155; with Etoposide + Crizotinib (first compound 1 µM) it was 0.111; with Etoposide + Olaparib (first compound 0.01 µM) it was 0.423; with Etoposide + Olaparib (first compound 0.03162 µM), 0.458; in the test with Etoposide + Olaparib (first compound 0.1 µM), 0.229; with Etoposide + Olaparib (first compound 0.3162 µM), 0.113. For the same cell line, the relative viability with Etoposide + Olaparib (first compound 1 µM) came out at 0.0808.
SK-LU-1: the relative viability with Bleomycin + Lapatinib (first compound 0.01 µM) worked out at 0.745; with Bleomycin + Lapatinib (first compound 0.03162 µM) it was 0.858; with Bleomycin + Lapatinib (first compound 0.1 µM) it was 0.709; with Bleomycin + Lapatinib (first compound 0.3162 µM), 0.35; in the test with Bleomycin + Lapatinib (first compound 1 µM), 0.347; with Bleomycin + Dasatinib (first compound 0.01 µM), 0.169. Also, the relative viability with Bleomycin + Dasatinib (first compound 0.03162 µM) amounted to 0.166; in the test with Bleomycin + Dasatinib (first compound 0.1 µM) it was 0.173; with Bleomycin + Dasatinib (first compound 0.3162 µM), 0.144; with Bleomycin + Dasatinib (first compound 1 µM) it was 0.104; in the test with Etoposide + Crizotinib (first compound 0.01 µM) it was 0.778; with Etoposide + Crizotinib (first compound 0.03162 µM) it was 0.902. The relative viability amounted to 0.614 in the test with Etoposide + Crizotinib (first compound 0.1 µM); 0.387 in the test with Etoposide + Crizotinib (first compound 0.3162 µM); 0.327 with Etoposide + Crizotinib (first compound 1 µM); 0.407 in the test with Etoposide + Olaparib (first compound 0.01 µM); 0.511 with Etoposide + Olaparib (first compound 0.03162 µM); 0.348 with Etoposide + Olaparib (first compound 0.1 µM). Also, the relative viability with Etoposide + Olaparib (first compound 0.3162 µM) is 0.238; with Etoposide + Olaparib (first compound 1 µM), 0.193.
Turning to NCI-H1651, the relative viability with Bleomycin + Lapatinib (first compound 0.01 µM) was 0.75; with Bleomycin + Lapatinib (first compound 0.03162 µM), 0.653; with Bleomycin + Lapatinib (first compound 0.1 µM) it was 0.595; with Bleomycin + Lapatinib (first compound 0.3162 µM) it was 0.229; with Bleomycin + Lapatinib (first compound 1 µM), 0.149; with Bleomycin + Dasatinib (first compound 0.01 µM), 0.344. Also, the relative viability with Bleomycin + Dasatinib (first compound 0.03162 µM) came out at 0.361; with Bleomycin + Dasatinib (first compound 0.1 µM), 0.384; with Bleomycin + Dasatinib (first compound 0.3162 µM), 0.187; with Bleomycin + Dasatinib (first compound 1 µM), 0.144; with Etoposide + Crizotinib (first compound 0.01 µM), 0.815; with Etoposide + Crizotinib (first compound 0.03162 µM), 0.827. For the same cell line, the relative viability with Etoposide + Crizotinib (first compound 0.1 µM) is 0.629; with Etoposide + Crizotinib (first compound 0.3162 µM), 0.301; in the test with Etoposide + Crizotinib (first compound 1 µM), 0.202; with Etoposide + Olaparib (first compound 0.01 µM), 0.175; with Etoposide + Olaparib (first compound 0.03162 µM), 0.188; with Etoposide + Olaparib (first compound 0.1 µM), 0.202. The relative viability turned out to be 0.138 with Etoposide + Olaparib (first compound 0.3162 µM) and 0.0965 with Etoposide + Olaparib (first compound 1 µM).
For NCI-H2170, the relative viability in the test with Bleomycin + Lapatinib (first compound 0.01 µM) turned out to be 0.303; with Bleomycin + Lapatinib (first compound 0.03162 µM) it was 0.262; with Bleomycin + Lapatinib (first compound 0.1 µM), 0.259; with Bleomycin + Lapatinib (first compound 0.3162 µM) it was 0.231; with Bleomycin + Lapatinib (first compound 1 µM), 0.21; with Bleomycin + Dasatinib (first compound 0.01 µM), 0.504. Further, the relative viability is 0.599 with Bleomycin + Dasatinib (first compound 0.03162 µM); 0.638 in the test with Bleomycin + Dasatinib (first compound 0.1 µM); 0.285 with Bleomycin + Dasatinib (first compound 0.3162 µM); 0.389 in the test with Bleomycin + Dasatinib (first compound 1 µM); 1.06 with Etoposide + Crizotinib (first compound 0.01 µM); 1.21 with Etoposide + Crizotinib (first compound 0.03162 µM). In addition, the relative viability amounted to 1 with Etoposide + Crizotinib (first compound 0.3162 µM); 0.851 with Etoposide + Crizotinib (first compound 1 µM); 0.581 with Etoposide + Olaparib (first compound 0.01 µM); 0.621 with Etoposide + Olaparib (first compound 0.03162 µM); 0.514 with Etoposide + Olaparib (first compound 0.3162 µM); 0.29 with Etoposide + Olaparib (first compound 1 µM).
Take NCI-H2023: the relative viability with Bleomycin + Lapatinib (first compound 0.01 µM) came to 0.521; in the test with Bleomycin + Lapatinib (first compound 0.03162 µM), 0.664; with Bleomycin + Lapatinib (first compound 0.1 µM), 0.506; in the test with Bleomycin + Lapatinib (first compound 0.3162 µM), 0.19; with Bleomycin + Lapatinib (first compound 1 µM) it was 0.101; with Bleomycin + Dasatinib (first compound 0.01 µM), 0.345. For the same cell line, the relative viability came out at 0.316 with Bleomycin + Dasatinib (first compound 0.03162 µM); 0.302 in the test with Bleomycin + Dasatinib (first compound 0.1 µM); 0.163 with Bleomycin + Dasatinib (first compound 0.3162 µM); 0.129 with Bleomycin + Dasatinib (first compound 1 µM); 0.605 with Etoposide + Crizotinib (first compound 0.01 µM); 0.622 in the test with Etoposide + Crizotinib (first compound 0.03162 µM). In addition, the relative viability with Etoposide + Crizotinib (first compound 0.1 µM) stood at 0.525; in the test with Etoposide + Crizotinib (first compound 0.3162 µM), 0.212; with Etoposide + Crizotinib (first compound 1 µM), 0.106; with Etoposide + Olaparib (first compound 0.01 µM), 0.415; with Etoposide + Olaparib (first compound 0.03162 µM), 0.452; with Etoposide + Olaparib (first compound 0.1 µM) it was 0.356. Also, the relative viability amounted to 0.137 with Etoposide + Olaparib (first compound 0.3162 µM) and 0.111 in the test with Etoposide + Olaparib (first compound 1 µM).

The values are drawn from the supplement of paper PMC10307832.
